Earlier results on one compound are cited in patent US7083802B2, “Treatment of ocular disease” (Advanced Ocular Systems Limited, priority 2003, dated 2006).

The conditions of data set [1]: reported in co-pending application Ser. No. 10/247,220.

The structures appear in SMILES notation.

On to `C=CC[C@@H]1/C=C(\C)C[C@H](C)C[C@H](OC)[C@H]2O[C@@](O)(C(=O)C(=O)N3CCCC[C@H]3C(=O)O[C@H](/C(C)=C/[C@@H]3CC[C@@H](O)[C@H](OC)C3)[C@H](C)[C@@H](O)CC1=O)[C@H](C)C[C@@H]2OC` [tacrolimus], for which the “Dose for administration without substantial toxicity” value in data set [1] is 250 µg. In addition, the “Clinical effect in atopic dermatitis” value (topical, doses 0.03%–0.3%, after 2–3 weeks treatment) was “significant clinical improvement”. The “Adverse effects of topical administration versus control” value (treatment of dermatoses, concentrations up to 0.3%) is “no significant difference in effects between treated and control groups”.
